Row | Compound | melting point [°C]
1 | O=P(O)(O)CCCCCCCCC(F)(F)C(F)(F)C(F)(F)C(F)(F)F | 87 to 89
2 | O=c1[nH]nc(-c2ccc(NN=C(c3ccc(O)cc3O)c3ccc(O)cc3O)cc2)c2ccccc12 | 140 to 146
3 | O=C(O)c1ccc(S(=O)(=O)CCCl)cc1 | 142 to 144
4 | CCOC(=O)C1=C(C)N=C(NC)N(C(=O)OCC)C1c1cccc([N+](=O)[O-])c1 (centres undefined) | 112 to 114
5 | COCc1nc(-c2cc(C(C)(C)C)c(O)c(C(C)(C)C)c2)cs1 | 116 to 117
6 | COc1ccc(C(=O)NC(=O)Nc2cc3c(cc2F)/C(=C/c2[nH]c(C)c(CCC(=O)O)c2C)C(=O)N3)c(F)c1 | > 300
7 | CCCCCNCc1ccc(-c2ccccc2S(=O)(=O)NC(C)(C)C)cc1 | 69 to 70
8 | COC(=O)CCc1sc(NC(=O)C[C@H]2O[C@H](c3cccc(OC)c3OC)c3cc(Cl)ccc3N(CC(C)(C)COC(C)=O)C2=O)nc1-c1ccccc1 | 168
9 | COc1ccc(C(=C/C=C/C(=O)Nc2ccc(-c3cccnc3)cc2)c2ccc(OC)cc2)cc1 | 210 to 212
10 | COc1c(C)cc([N+](=O)[O-])cc1C(=S)N(C)C | 138 to 139
11 | CCOC(=O)c1sc(-c2ccc(C#N)cc2)nc1COC(C)=O | 127
12 | CN(c1ccc(OC(F)(F)F)cc1)C1CCN(C[C@@]2(C)Cn3cc([N+](=O)[O-])nc3O2)CC1 | 133 to 134
13 | C[C@@H](NC(=O)c1sc(-c2ccc(C#N)cc2)nc1C(F)(F)F)[C@](O)(Cn1cncn1)c1ccc(F)cc1F | 101 to 108
14 | COc1cc(C(C)=O)ccc1OC(C)=O | 58.7
15 | CC1=CC(NC(=O)OC(C)(C)C)C(C(=O)O)CC1 (centres undefined) | 132 to 136
16 | CCCCCS(=O)(=O)NC(=O)/C=C/c1ccc(OCCOC)cc1Nc1ccc(C(F)(F)F)cc1Cl | 174 to 175
17 | CC(=O)c1ccc(-n2c(-c3sc(Nc4ccccc4)nc3-c3ccccc3)nc3ccccc3c2=O)cc1 | 223 to 225
18 | O=C(O)c1ccc(C(=O)C=Cc2ccccc2)cc1 | 217 to 220
19 | COC1O[C@H](CC#N)[C@H](OCc2ccccc2)[C@H]1O (some centres undefined) | 59 to 60
20 | CC(=NNC(=N)N)c1cccc(OCc2ccc3ccccc3n2)c1 | 57 to 59

Row | Compound | melting point [°C]
21 | COC(=O)CCCN1CCC(CNC(=O)[C@@H]2CCCN2S(=O)(=O)c2ccc(Cl)c(COc3cccc4c(-n5ccnc5)cc(C)nc34)c2Cl)CC1 | 98
22 | Nc1ccc(-c2ccc(C(F)(F)F)cc2)cn1 | 130
23 | O=C(NCc1ccccn1)Nc1cc(-n2cc(-c3ccccc3)oc2=O)ccn1 | 208 to 209
24 | CN1C(=O)[C@@H](CN2CCCCC2)C[C@H]1c1ccc(Br)s1 | 69 to 71
25 | CC(=O)Nc1cccc(CNc2nc(Nc3cccc(NS(C)(=O)=O)c3)nc3[nH]cnc23)c1 | 159 to 162
26 | COC(=O)CCC12CCC(=O)N1C(=O)CC2 | 110 to 112
27 | N#Cc1c(F)cccc1Nc1ccccc1 | 97 to 99
28 | O=C(NCCCCCCOC(=O)N1CCC(O)CC1)Oc1ccc(Oc2ccccc2)cc1 | 48 to 55
29 | CCCCN1C(=O)CC(=O)NC1=O | 107 to 108
30 | COCn1cnc(Cl)c1Cl | 41 to 44
31 | COc1cc(N)nc(N2CCOCC2)n1 | 162 to 164
32 | CCc1coc(Cc2ccc([N+](=O)[O-])cc2)n1 | 58 to 59
33 | CC1OC(n2cnc(C(N)=O)c2CC#N)C(O)C1O (centres undefined) | 173 to 174
34 | OC(CNc1nnc2n1CCCC2)COc1cccc(CN2CCCCC2)c1 (centres undefined) | 141 to 142
35 | Cc1c(NC(=O)C(CSC(=O)c2ccco2)Cc2ccccc2)cccc1C(=O)O (centres undefined) | 113 to 116
36 | O=C(NNS(=O)(=O)c1ccccc1)c1ccccc1Oc1ccccc1 | 149 to 150
37 | Cn1cnc(COc2ccc(-c3cc(-c4c[nH]nc4-c4ccccn4)ccn3)cc2)c1 | 104
38 | COC(=O)C(Oc1ccc(Cl)cc1)c1ccc(S(=O)c2ccc(Cl)cc2)cc1 (centres undefined) | 134 to 144
39 | Nc1sc2c(c1C(=O)c1ccc(-c3ccccc3)cc1)CCN(C(=O)OCc1ccccc1)C2 | 83 to 85
40 | O=C(O)Cc1cccc(OCCCc2cn(-c3ccc(C(F)(F)F)cn3)nc2-c2ccccc2)c1 | 132 to 133

More lines, now with the values ahead:

Row | melting point [°C] | Compound
41 | 183 | Cc1cc(C)cc(Nc2nccc(-n3ccnc3-c3ccccc3)n2)c1
42 | 141 to 143 | CCOC(=O)C1=C2COCCN2C(C)=C(C(=O)OC)C1c1ccccc1Cl (centres undefined)
43 | 208 to 210 | COc1ncccc1NC(=O)C1(O)CCCn2c1nc(-c1ccncn1)cc2=O (racemic)
44 | 224 to 227 | CCNC(=O)CC1CCN(Cc2cnc3cc(NC(=O)c4ccc(-c5ccc(F)cc5)cc4)ccc3c2)CC1
45 | 157 | CC(C)(Cc1cc2cc(OCc3ccc4occc4n3)ccc2n1Cc1ccc(Cl)cc1)C(=O)O
46 | 175 to 176 | Nc1ncnc2c1c(-c1ccccc1Cl)cn2-c1ccccc1
47 | 203 to 204 | O=C(O)c1c(-c2cccc(Cl)c2)csc1N1C(=O)c2ccccc2C1=O
48 | 219 to 221 | Cn1cc(C(=O)NCc2ccc(Cl)cc2)c(=O)c2cc(CC3CCOCC3)ccc21
49 | 80 to 82 | Cc1nc2ccc3c(c2o1)O[C@@H](CN[C@H]1CC[C@@H](c2c[nH]c4ccc(F)cc42)CC1)CO3
50 | 221 to 223 | CC(C)n1nc(-c2c(-c3ccccc3)nc(N)nc2N2CCCCC2)ccc1=O
51 | 188 to 190 | CC1=C2c3c(cnc4cc(Cl)ccc34)NC2C(C)CN1 (centres undefined)
52 | 117 to 119 | COC(=O)c1nc2cc(Cl)cc(C)c2c(O)c1C(=O)OC
53 | 150 to 151 | COc1ccc(C2NC(C(=O)O)CS2)cc1 (centres undefined)
54 | 130 to 139 | CSc1ccc(-c2cnn(CC(F)(F)F)c(=O)c2Cl)cc1
55 | 149 to 150 | COc1nnc2c(=O)c3ccccc3ccn12
56 | 176 to 177 | CC1(C)CN=C(c2cc3cccc(NS(=O)(=O)c4cccs4)c3[nH]2)S1
57 | 272 to 274 | CN1c2cc(Cl)ccc2-c2nc3ccccc3c3cccc1c23
58 | 199 to 200 | Cc1nc(-c2ccccc2)nc(-c2cccc([N+](=O)[O-])c2)c1C(=O)NCCCl
59 | 99 to 100 | COc1cc(Nc2c(C#N)cnc3cc(/C=C/CCCCN4CCOCC4)c(OC)cc23)c(Cl)cc1Cl
60 | 98 to 99 | CCOc1cc(Cl)ccc1Cn1nc(OC(C)C)cc1CCCOc1c(CC(=O)O)cccc1OC
61 | 85 to 87 | CCOc1c(C(=O)c2cccs2)cnc2c1cnn2Cc1ccco1
62 | 106 to 108 | CCN(c1nc(C)cc(C)n1)c1ccc(CC=NOC)cc1SC
63 | 166 to 168 | Cn1c(Cl)c(C=O)c2ccc(Cl)cc21
64 | 117 to 118 | CCOC(=O)c1nnc(-c2ccc(Cl)cc2)o1
65 | 178 | CC(Oc1cccc(OCc2ccc3ccc(Br)cc3n2)c1)C(=O)O (centres undefined)
66 | 129 to 130 | CCCc1cc(CC(=O)O)ccc1OC1COc2ccc(C(C)=O)c(O)c2C1 (centres undefined)
67 | 96 to 98 | COC(=O)c1cccc(OCc2c(Cl)cccc2Cl)c1
68 | 95 to 97 | CCOC(=O)C1=C(C)NC(SCc2ccc(OC)cc2)=NC1c1cccc([N+](=O)[O-])c1 (centres undefined)
69 | 147 | CCOC(=O)c1cnc2c(C)cc(-c3ccc(Cl)cc3)cn12

— a melting point compilation (Tetko et al.; mined from patent text by program, amines drawn as free bases though some values may be those of a salt)
